Experiments:
Format in all cases: in vivo
Conditions in all cases: lower rate of 250 g per hectare, evaluated after 13 days
[1] = tested on: Amaranthus palmeri (AMAPA); test: Pre-emergence Test (Table B1)
Zea mays (ZEAMX) [2] = test: Pre-emergence Test (Table B1); parameters: key: 5=81-100%; 4=61-80%; 3=41-60%; 2=21-40%; 1=0-20%; 0=inactive
[3] = tested on: Amaranthus retroflexus (AMARE); test: Post-emergence Test (Table B2)
Procedure, shortened: (§1)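 Damage to each species, as a percentage, was rated 13 days after a spray application of 1000 g/ha (unless otherwise stated) to seed-sown pots under controlled glasshouse conditions.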

[4] = tested on: Amaranthus palmeri (AMAPA); test: Post-emergence Test (Table B2)
Procedure, shortened: as §1

Setaria faberi (SETFA) [5] = test: Post-emergence Test (Table B2)
Procedure, shortened: as §1

[6] = tested on: Echinochloa crus-galli (ECHCG); test: Post-emergence Test (Table B2)
Procedure, shortened: as §1

Zea mays (ZEAMX) [7] = test: Post-emergence Test (Table B2)
Procedure, shortened: as §1

[8] = tested on: Ipomoea hederacea (IPOHE); test: Post-emergence Test (Table B2)
Procedure, shortened: as §1

Setaria faberi (SETFA) [9] = test: Pre-emergence Test (Table B1); parameters: key: 5=81-100%; 4=61-80%; 3=41-60%; 2=21-40%; 1=0-20%; 0=inactive
[10] = tested on: Ipomoea hederacea (IPOHE); test: Pre-emergence Test (Table B1)
[11] = tested on: Amaranthus retroflexus (AMARE); test: Pre-emergence Test (Table B1)
[12] = tested on: Echinochloa crus-galli (ECHCG); test: Pre-emergence Test (Table B1); parameters: key: 5=81-100%; 4=61-80%; 3=41-60%; 2=21-40%; 1=0-20%; 0=inactive

Compound	percentage damage caused to the plant, AMAPA [1]	percentage damage caused to the plant, ZEAMX (Zea mays (ZEAMX) [2])	percentage damage caused to the plant, AMARE [3]	percentage damage caused to the plant, AMAPA [4]	percentage damage caused to the plant, SETFA (Setaria faberi (SETFA) [5])	percentage damage caused to the plant, ECHCG [6]	percentage damage caused to the plant, ZEAMX (Zea mays (ZEAMX) [7])	percentage damage caused to the plant, IPOHE [8]	percentage damage caused to the plant, SETFA (Setaria faberi (SETFA) [9])	percentage damage caused to the plant, IPOHE [10]	percentage damage caused to the plant, AMARE [11]	percentage damage caused to the plant, ECHCG [12]
CCn1c(C)c(-c2cc(C(=O)OC(C)C#N)c(Cl)cc2F)c(=O)c(C(=O)O)c1-c1ccc(Cl)c(Cl)c1 (stereo not drawn) [Compound 44, 5-[4-chloro-5-(1-cyanoethoxycarbonyl)-2-fluoro-phenyl]-2-(3,4-dichlorophenyl)-1-ethyl-6-methyl-4-oxo-pyridine-3-carboxylic acid]	5 (5=81-100%)	0	5 (5=81-100%)	5 (5=81-100%)	3 (3=41-60%)	3 (3=41-60%)	2 (2=21-40%)	4 (4=61-80%)	0	2 (2=21-40%)	5 (5=81-100%)	0
CCn1c(C)c(-c2cc(C(=O)OC3CC3)c(Cl)cc2F)c(=O)c(C(=O)O)c1-c1ccc(C#N)c(Cl)c1 [Compound 46, 2-(3-chloro-4-cyano-phenyl)-5-[4-chloro-5-(cyclopropoxycarbonyl)-2-fluoro-phenyl]-1-ethyl-6-methyl-4-oxo-pyridine-3-carboxylic acid]	5 (5=81-100%)	0	5 (5=81-100%)	5 (5=81-100%)	5 (5=81-100%)	5 (5=81-100%)	5 (5=81-100%)	4 (4=61-80%)	1 (1=0-20%)	2 (2=21-40%)	5 (5=81-100%)	0

From patent US20260060250A1, “HERBICIDAL PYRIDONE DERIVATIVES” (SYNGENTA CROP PROTECTION AG, priority 2022, published 2026)
